Measurements published in paper PMC8056384 (ACS Chemical Biology, 2021).
Where “and” joins values, the source holds several entries; their conditions need not be identical. Identical values can stand only once.

Columns and labels:
hGALK1 [1] = target: T1, hGALK1 (Homo sapiens, UniProt P51570, E253A/K252A); assay: Kinase-Glo luminescent hGALK1 activity assay; format: biochemical; design: Vmaxapp, substrate galactose, with ligand (+) / Kmapp, substrate galactose, with ligand (+): unit not given here; conditions: for Kmapp, substrate galactose, with ligand (+) / Vmaxapp, substrate galactose, with ligand (+): 35 µM ATP, maximum tested concentration: 1 mM T1, 15 mM fragment 3, 2 mM 11–13; for mode of inhibition with respect to galactose: 0–250 μM galactose, best-fit model in GraphPad Prism; for inhibition at 2000 µM: 2 mM compound; for Kinase-Glo LLEAT: calculated cumulatively over N1 and N2
T1 construct: A hGALK1 construct, encoding full-length protein harboring the surface entropy[41] mutations K252A:E253A; His6 (N); made in house; host or cells: E. coli BL21(DE3)
T1 sequence (P51570 whole entry K252A/E253A, the tested form may be a part): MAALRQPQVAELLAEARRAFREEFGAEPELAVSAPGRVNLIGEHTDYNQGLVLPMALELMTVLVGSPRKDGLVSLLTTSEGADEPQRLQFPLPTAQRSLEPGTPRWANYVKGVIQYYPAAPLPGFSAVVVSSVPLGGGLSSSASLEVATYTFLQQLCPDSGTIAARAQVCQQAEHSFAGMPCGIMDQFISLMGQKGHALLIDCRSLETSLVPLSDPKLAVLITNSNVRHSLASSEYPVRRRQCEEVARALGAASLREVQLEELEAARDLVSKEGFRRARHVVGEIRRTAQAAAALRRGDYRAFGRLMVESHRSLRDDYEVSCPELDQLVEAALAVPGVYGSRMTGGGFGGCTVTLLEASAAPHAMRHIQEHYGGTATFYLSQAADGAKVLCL
Experimental: hGALK1 activity in vitro was determined using the Kinase-Glo luminescent kinase assay (Promega), according to the manufacturer’s protocol. […] Following a 1-h RT incubation, 10 μL of Kinase-Glo Plus detection reagent was added (final assay volume: 20 μL/well), and after a further 20 minutes RT incubation, luminescence was detected using a Pherastar FSX plate reader (BMG Labtech) containing a luminescence optics module. […] All reactions were performed in technical triplicates for two different preparations of hGALK1.
Data were plotted using GraphPad Prism software; curve fitting was performed with a nonlinear least-squares regression fit to the mixed, competitive, noncompetitive, and uncompetitive inhibition models from the GraphPad Prism enzyme kinetics–inhibition equations and the best fit selected by comparison of Akaike’s Information Criterion (AICc) probability scores and extra sum-of-squares F test P values calculated by the software.

hGALK1 [2] = target: T1, hGALK1; assay: Amplex Red fluorescence-based hGALK1 activity assay (coupled with galactose oxidase); format: biochemical; design: Vmaxapp, substrate ATP, with ligand (+) / Kmapp, substrate ATP, with ligand (+): unit not given here; conditions: for Kmapp, substrate ATP, with ligand (+) / Vmaxapp, substrate ATP, with ligand (+): 50 µM galactose, maximum tested concentration: 1 mM T1, 15 mM fragment 3, 2 mM 11–13; for mode of inhibition with respect to ATP: 50 μM galactose, 0–250 μM ATP, best-fit model in GraphPad Prism; for inhibition at 2000 µM: 2 mM compound; for Amplex Red LLEAT: calculated cumulatively over N1 and N2
Excerpt: Consequently, to confirm the mode of inhibition of the spiro-benzoxazole inhibitors with respect to ATP, we adopted the Amplex Red fluorescence-based assay[33],[34] by coupling the hGALK1 reaction with D. dendroides galactose oxidase (GAO; EC 1.1.3.9) to measure the level of galactose remaining after being depleted as a substrate for hGALK1. In this method, hydrogen peroxide generated by the oxidation of galactose by GAO is used by horseradish peroxidase to convert the nonfluorescent substrate Amplex Red into its highly fluorescent product resorufin; therefore, the resultant fluorescent signal is inversely proportional to hGALK1 enzyme activity. We optimized several parameters of this assay to allow measurement of hGALK1 activity for the first time (Figure S3; Supplementary Results).
The Amplex Red assay reagent contained horseradish peroxidase (EC 1.11.1.7, 0.2 U/mL), its substrate Amplex Red (10-acetyl-3,7-dihydroxyphenoxazine, 100 μM), and galactose oxidase (EC 1.1.3.9, 4 U/mL). The assay buffer used was the same as in the Kinase-Glo assay. […] Amplex Red reagent was added at a 1:1 volume to the hGALK1 reaction after 1-h incubation at RT. Fluorescence emission was measured at 585 nm, with excitation at 570 nm, after a further incubation period of 40 minutes, using a Pherastar FSX plate reader with a FI 540 590 optics module. Reactions were performed in technical triplicates for two biological replicates, and data were plotted and fitted as described for the Kinase-Glo assay except that the reaction rate, defined as total galactose consumed over the 1-h hGALK1 reaction, was determined using the following equation, where Fluorreaction = mean value of measured fluorescence of each reaction and Fluor50 = measured fluorescence with no galactose (i.e., fluorescence of 50 μM galactose): [drawing 2]

hGALK2 = target: T2, hGALK2 (Homo sapiens, UniProt Q01415); assay: Kinase-Glo hGALK2 activity assay; format: biochemical; conditions: 1 mM compound
T2 construct: Constructs encoding full-length hGALK2 (Met1-Ala458) and hMVK (Met1-Leu396); His6-Strep-Strep tag followed by TEV protease cleavage site (N); made in house; host or cells: E. coli BL21(DE3)
T2 sequence (Q01415 1-458): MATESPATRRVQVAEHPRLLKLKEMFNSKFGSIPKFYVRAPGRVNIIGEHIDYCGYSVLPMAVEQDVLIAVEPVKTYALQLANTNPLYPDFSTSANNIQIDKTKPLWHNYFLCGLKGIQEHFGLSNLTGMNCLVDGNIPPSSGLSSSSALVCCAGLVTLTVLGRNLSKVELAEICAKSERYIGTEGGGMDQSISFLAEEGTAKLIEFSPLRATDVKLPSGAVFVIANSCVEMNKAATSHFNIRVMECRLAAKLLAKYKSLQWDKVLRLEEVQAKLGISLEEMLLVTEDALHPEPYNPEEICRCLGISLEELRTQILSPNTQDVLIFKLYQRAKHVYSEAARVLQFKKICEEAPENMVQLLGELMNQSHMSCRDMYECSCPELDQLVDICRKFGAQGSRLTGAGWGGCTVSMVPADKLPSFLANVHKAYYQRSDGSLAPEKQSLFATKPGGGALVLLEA
Experimental: (§1) hGALK1 activity in vitro was determined using the Kinase-Glo luminescent kinase assay (Promega), according to the manufacturer’s protocol. […] Similarly, hGALK2 activity and inhibition was measured with reactions containing 50 nM hGALK2, 100 μM N-acetylgalactosamine, and 35 μM ATP in the above-described buffer and hMVK activity and inhibition was measured with reactions containing 250 nM hMVK, 100 μM mevalonate, and 35 μM ATP in the above-described buffer. Following a 1-h RT incubation, 10 μL of Kinase-Glo Plus detection reagent was added (final assay volume: 20 μL/well), and after a further 20 minutes RT incubation, luminescence was detected using a Pherastar FSX plate reader (BMG Labtech) containing a luminescence optics module. To determine the inhibition mode with respect to galactose, 10 nM hGALK1 and 35 μM ATP in an assay buffer was added to an array of six fragment (0–15 mM) or 12 compound (0–2 mM) concentrations against six galactose concentrations (0–250 μM), with a final reaction volume of 10 μL/well dispensed into 384-well assay plates (Greiner), and measured as described above. All reactions were performed in technical triplicates for two different preparations of hGALK1. Reaction rate, defined as total ATP consumed over the 1-h hGALK1 reaction, was determined using the following equation, where Lumreaction = mean value of measured luminescence of each reaction and Lum35 = measured luminescence with no galactose (i.e., luminescence of 35 μM ATP): [drawing 1]

hMVK = target: T3, hMVK (Homo sapiens, UniProt Q03426); assay: Kinase-Glo hMVK activity assay; format: biochemical; conditions: 1 mM compound
T3 construct: Constructs encoding full-length hGALK2 (Met1-Ala458) and hMVK (Met1-Leu396); His6-Strep-Strep tag followed by TEV protease cleavage site (N); made in house; host or cells: E. coli BL21(DE3)
T3 sequence (Q03426 whole entry): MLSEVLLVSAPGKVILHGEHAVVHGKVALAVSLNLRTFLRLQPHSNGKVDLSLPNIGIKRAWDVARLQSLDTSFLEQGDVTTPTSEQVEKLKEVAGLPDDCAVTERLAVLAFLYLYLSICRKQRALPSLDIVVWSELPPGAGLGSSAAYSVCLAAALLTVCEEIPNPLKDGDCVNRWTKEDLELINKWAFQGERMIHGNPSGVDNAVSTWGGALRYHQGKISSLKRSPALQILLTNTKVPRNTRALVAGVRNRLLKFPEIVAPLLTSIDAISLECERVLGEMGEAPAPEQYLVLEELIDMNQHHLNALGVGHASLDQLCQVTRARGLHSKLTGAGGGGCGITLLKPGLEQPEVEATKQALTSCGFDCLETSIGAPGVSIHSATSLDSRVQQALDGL
Experimental: as §1

hGALK1 [3] = target: T1, hGALK1; assay: Surface plasmon resonance (SPR) binding assay; conditions: hGALK1 immobilized on CM5 chip, analyte 0.195–200 μM, n = 1
Experimental: Purified hGALK1 (30 μg/mL), diluted in acetate buffer at pH 5, was attached via covalent coupling to a density of 13000 RU on a CM5 chip. The assay buffer was 50 mM sodium phosphate, pH 7.5, 200 mM NaCl, 0.5 mM TCEP, 5% DMSO, and 0.05% TWEEN20. A serial dilution (11 concentrations) was prepared in the above buffer for each analyte (3, 11–13) by 1:1 dilution from 200 μM to 0.195 μM, and the subsequent solutions were passed over the chip at a flow rate of 30 μL/min. Data are from an n = 1 experiment.

[4] = biological replicate N1, read-out: Kinase-Glo N1 IC50
[5] = biological replicate N2, read-out: Kinase-Glo N2 IC50
[6] = range over Kinase-Glo and Amplex Red assays
[7] = range over Kinase-Glo and Amplex Red assays, two biological replicates, read-out: IC50 values, range
[8] = biological replicate N1, read-out: Amplex Red N1 IC50
[9] = biological replicate N2, read-out: Amplex Red N2 IC50
[10] = concentration achieving 50% inhibition, IC50 not determinable, lower potency

Compound	Kmapp, substrate galactose, with ligand (+) (hGALK1 [1])	Vmaxapp, substrate galactose, with ligand (+) (hGALK1 [1])	Kmapp, substrate ATP, with ligand (+) (hGALK1 [2])	Vmaxapp, substrate ATP, with ligand (+) (hGALK1 [2])	mode of inhibition with respect to galactose (hGALK1 [1]; 35 μM ATP)	mode of inhibition with respect to ATP (hGALK1 [2])	inhibition at 2000 µM (hGALK1 [1]) [%]	IC50 (hGALK1 [1]; [4]) [µM]	IC50 (hGALK1 [1]; [5]) [µM]	Kinase-Glo LLEAT (hGALK1 [1]) [kcal/mol]	LLEAT (Astex ligand lipophilicity efficiency score), range (hGALK1 [1]; [6]) [kcal/mol]	IC50 (hGALK1 [1]; [7]) [µM]	inhibition at 1000 µM (hGALK2) [%]	inhibition at 1000 µM (hMVK) [%]	inhibition at 2000 µM (hGALK1 [2]) [%]	IC50 (hGALK1 [2]; [8]) [µM]	IC50 (hGALK1 [2]; [9]) [µM]	Amplex Red LLEAT (hGALK1 [2]) [kcal/mol]	Kd (hGALK1 [3])	further results
O=C1CCCC2=C1C1(CCCC1)N=C(Nc1nc3ccccc3o1)N2 [T1, 2′-(benzo[d]oxazol-2-ylamino)-7′,8′-dihydro-1′H-spiro[cyclopentane-1,4′-quinazolin]-5′(6′H)-one, reference compound]	32.9 ± 1.0	4.1 ± 0.5	63.5 ± 2.6	27.9 ± 1.5	–	–	–	–	–	–	–	–	–	–	–	–	–	–	–	–
O=C1CCCC2=C1C1(CCCCC1)N=C(Nc1nc3ccccc3o1)N2 [T2, 2′-(benzo[d]oxazol-2-ylamino)-7′,8′-dihydro-1′H-spiro[cyclohexane-1,4′-quinazolin]-5′(6′H)-one, reference compound]	–	–	–	–	non-competitive	competitive	–	–	–	–	–	–	–	–	–	–	–	–	–	IC50 (hGALK1 [1]; 10 nM hGALK1, 100 μM galactose, 35 μM ATP, read-out: IC50): 17 µM
O=C(CNc1cnc2cc(Cl)c(Cl)cc2n1)NC1CC1 [compound 11]	36.5 ± 2.1	3.7 ± 0.4	36.5 ± 5.8	11.1 ± 0.9	noncompetitive	noncompetitive	> 50	209	116	0.19	0.19 to 0.22	31 to 209	< 10	< 10	> 50	31	65	0.22	~100 µM and 89 µM	–
COCCNC(=O)CNc1cnc2cc(Cl)c(Cl)cc2n1 [compound 12]	41.5 ± 12.4	9.4 ± 1.1	40.4 ± 4.7	11.8 ± 0.2	noncompetitive	noncompetitive	> 50	198	96	0.23	0.23 to 0.27	25 to 198	< 10	< 10	> 50	45	25	0.27	~100 µM and 97 µM	–
COc1ccc(Cl)cc1C(=O)NC1CCN(c2ncccn2)CC1 [compound 13]	143.6 ± 7.6	4.4 ± 0.4	46.5 ± 4.5	14.7 ± 3.0	mixed	noncompetitive	> 50	–	–	–	–	–	< 10	< 10	> 50	–	–	–	~200 µM and ~203 µM	IC50 (hGALK1 [1]; [10]): ~1000 µM; IC50 (hGALK1 [2]; [10]): ~1000 µM
CCOC(=O)C1CCN(c2cnccn2)CC1 [fragment 1]	–	–	–	–	–	–	–	–	–	–	–	–	–	–	–	–	–	–	–	change in hGALK1 activity, strictly standardized mean difference (SSMD) (hGALK1 [1]; 5 mM fragment): < 0.5
